pIC50: −log10 of the molar value.
Tests used:
[1] = species: Homo sapiens; assay: Selectivity index, ratio of IC50 for recombinant human TC-PTP (2 to 315 residues) to IC50 for recombinant human PTP1B (1 to 322 residues) expressed in Escherichia coli
[2] = molecular target: T1, Tyrosine-protein phosphatase non-receptor type 2 (Homo sapiens, UniProt P17706); assay: Inhibition of recombinant human TC-PTP (2 to 315 residues) expressed in Escherichia coli using pNPP as substrate
T1 sequence (P17706 whole entry): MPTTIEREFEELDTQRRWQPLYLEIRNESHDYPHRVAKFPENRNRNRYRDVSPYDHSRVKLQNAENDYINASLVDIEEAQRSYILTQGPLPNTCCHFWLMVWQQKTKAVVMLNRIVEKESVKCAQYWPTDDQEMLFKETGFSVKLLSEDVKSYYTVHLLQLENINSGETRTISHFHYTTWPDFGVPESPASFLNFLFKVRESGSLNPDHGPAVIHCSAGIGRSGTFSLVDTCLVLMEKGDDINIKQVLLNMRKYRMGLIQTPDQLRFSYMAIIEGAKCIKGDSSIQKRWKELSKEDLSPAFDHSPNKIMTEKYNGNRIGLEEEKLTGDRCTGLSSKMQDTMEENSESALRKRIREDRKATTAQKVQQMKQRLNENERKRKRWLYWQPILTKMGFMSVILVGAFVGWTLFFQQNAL

[3] = molecular target: T2, Tyrosine-protein phosphatase non-receptor type 1 (Homo sapiens, UniProt P18031); assay: Inhibition of recombinant human PTP1B (1 to 322 residues) expressed in Escherichia coli using pNPP as substrate
T2 sequence (P18031 whole entry): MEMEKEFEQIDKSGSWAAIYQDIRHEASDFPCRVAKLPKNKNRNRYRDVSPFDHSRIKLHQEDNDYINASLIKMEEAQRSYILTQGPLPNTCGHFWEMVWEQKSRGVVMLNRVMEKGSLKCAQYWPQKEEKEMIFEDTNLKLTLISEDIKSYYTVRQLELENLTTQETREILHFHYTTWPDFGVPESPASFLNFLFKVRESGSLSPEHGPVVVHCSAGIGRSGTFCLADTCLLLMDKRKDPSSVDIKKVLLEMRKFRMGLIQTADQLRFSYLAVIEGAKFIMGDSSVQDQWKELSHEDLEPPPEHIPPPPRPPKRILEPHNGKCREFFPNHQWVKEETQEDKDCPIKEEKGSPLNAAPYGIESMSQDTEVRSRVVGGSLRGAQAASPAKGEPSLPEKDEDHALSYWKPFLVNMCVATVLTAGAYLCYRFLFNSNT

[4] = system: HepG2; assay: Cytotoxicity against human HepG2 cells assessed as […] cell viability at 50 uM measured after 24 hrs by MTT assay relative to control; format: cell-based; details: hepg2, 24 h
[5] = molecular target: T3, Tyrosine-protein phosphatase non-receptor type 1 (Homo sapiens) (UniProt P18031); assay: Inhibition of recombinant human PTP1B (1 to 322 residues) expressed in Escherichia coli at 1 uM using IR5 (1142 to 1153 residues) as substrate incubated for 30 mins by spectrophotometry analysis relative to control
T3 sequence (whole entry): T2 sequence (P18031 whole entry)

[6] = molecular target: T2, Tyrosine-protein phosphatase non-receptor type 1; assay: Inhibition of PTP1B (unknown origin)
[7] = Stability of the compound measured after 5 days; format: physicochemical; details: 120 h; time 5 day
[8] = Stability of the compound measured after 2 months at 4 degreeC; format: physicochemical; details: 1460 h
[9] = Stability of the compound measured up to 5 days; format: physicochemical; details: 120 h; time <=5 day
[10] = system: C2C12; assay: Induction of glucose uptake in mouse C2C12 cells at 2 uM pretreated with insulin for 30 mins followed by compound treatment for 90 mins by fluorescence microplate reader assay relative to control; format: functional; details: 1.5 h

Cc1nc2cc(Cl)c(Cl)cc2n2cccc12
Ratio IC50 [1]: > 43
pIC50 [2]: < 4.60
pIC50 [3]: 6.24
Activity [4]: > 90%

COc1ccc2c(c1)[n+](C)c(C)c1cccn12.[I-]
inhibition [5]: 22%
pIC50 [3]: < 5.00
Activity [4]: > 90%

Cc1cc2c(cc1C)-n1cccc1C(C)N2 (stereo not drawn)
inhibition [5]: 56%
Activity [4]: > 90%

COc1ccc2c(c1)NC(C)c1cccn1-2 (stereo not drawn)
inhibition [5]: 56%
pIC50 [3]: 5.86
Activity [4]: > 90%

Cc1nc2ccc(Cl)cc2n2cccc12
Ratio IC50 [1]: > 41
pIC50 [2]: < 4.60
pIC50 [3]: 6.22
Activity [4]: > 90%

CCCCCCS(=O)(=O)NC(=O)c1ccc(CSCc2ccc(-c3ccccc3)cc2)cc1
pIC50 [6]: 6.60

Cc1nc2cc(C(F)(F)F)ccc2n2cccc12
pIC50 [3]: < 5.00
Activity [4]: > 90%

Cc1ccc2c(c1)[n+](C)c(C)c1cccn12.[I-]
inhibition [5]: 22%
pIC50 [3]: < 5.00
Activity [4]: > 90%

C=C(C)[C@@H]1CC[C@]2(C(=O)O)CC[C@]3(C)[C@H](CC[C@@H]4[C@@]5(C)CC[C@H](O)C(C)(C)[C@@H]5CC[C@]43C)[C@@H]12 [BETULINIC ACID]
pIC50 [6]: 5.82

C=C(C)[C@@H]1CC[C@]2(C)CC[C@]3(C)[C@H](CC[C@@H]4[C@@]5(C)CC[C@H](O)C(C)(C)[C@@H]5CC[C@]43C)[C@@H]12 [LUPEOL]
pIC50 [6]: 6.25

CC1(C)CC[C@]2(C(=O)O)CC[C@@H]3C(=CC[C@H]4[C@H]3CC[C@@H]3[C@@H]4CC[C@H](O[C@@H]4O[C@H](CO)[C@@H](O)[C@H](O)[C@H]4O)C3(C)C)[C@@H]2C1
pIC50 [6]: 5.85

Cc1ccc2c(c1)nc(C)c1cccn12
pIC50 [3]: < 5.00
Activity [4]: > 90%

CC1Nc2cc(C(F)(F)F)ccc2-n2cccc21 (stereo not drawn)
inhibition [5]: 56%
Activity [4]: > 90%

Cc1cc2nc(C)c3cccn3c2cc1C
pIC50 [3]: < 5.00
Activity [4]: > 90%

Cc1c2cccn2c2ccc(C(F)(F)F)cc2[n+]1C.[I-]
Ratio IC50 [1]: 0.71
pIC50 [2]: 6.39
inhibition [5]: 22%
pIC50 [3]: 6.24
Activity [4]: > 90%

CC1c2cccn2-c2ccccc2N1C (stereo not drawn)
Ratio IC50 [1]: 0.98
pIC50 [2]: 6.30
inhibition [5]: 56%
pIC50 [3]: 6.29
Activity [4]: > 90%

CC1Nc2ccc(Cl)cc2-n2cccc21 (stereo not drawn)
Ratio IC50 [1]: > 11.1
pIC50 [2]: < 5.30
inhibition [5]: 56%
pIC50 [3]: 6.35
Activity [4]: > 90%

COc1ccc2c(c1)nc(C)c1cccn12
pIC50 [3]: < 5.00
Activity [4]: > 90%

Cc1ccc2c(c1)NC(C)c1cccn1-2 (stereo not drawn)
inhibition [5]: 56%

CC1Nc2ccccc2-n2cccc21 (stereo not drawn)
inhibition [5]: 56%
Stabilty [7]: Unstable
Stabilty [8]: Stable
Stabilty [9]: Stable
pIC50 [3]: 6.39
Activity [4]: > 90%

c1ccc(Cc2nc3ccccc3n3cccc23)cc1
pIC50 [6]: 6.62

Cc1cc2c(cc1C)[n+](C)c(C)c1cccn12.[I-]
inhibition [5]: 22%
Activity [4]: > 90%

Cc1c2cccn2c2cc(Cl)ccc2[n+]1C.[I-]
Ratio IC50 [1]: > 6.02
pIC50 [2]: < 5.30
inhibition [5]: 22%
pIC50 [3]: 6.08
Activity [4]: > 90%

CCCC[n+]1c(C)c2cccn2c2ccccc21.[I-]
inhibition [5]: 22%
pIC50 [3]: 5.72
Activity [4]: > 90%

Cc1c2cccn2c2ccccc2[n+]1C.[I-]
inhibition [5]: 22%
pIC50 [3]: 6.49
Activity [4]: > 90%

CC1Nc2cc(Cl)c(Cl)cc2-n2cccc21 (stereo not drawn)
Ratio IC50 [1]: > 5.26
pIC50 [2]: < 5.30
inhibition [5]: 56%
pIC50 [3]: 6.02
Activity [4]: > 90%
Activity [10]: 150%

Cc1nc2ccccc2n2cccc12
Ratio IC50 [1]: 4
pIC50 [2]: 5.40
Activity [4]: > 90%
